Results as given in patent US6949571B2, “1,2-dihydropyridine compounds, process for preparation of the same and use thereof” (Eisai Co., Ltd., priority 2000, dated 2005).
Where a name gives a salt, the structure may show the parent alone.

Tested on: AMPA receptor
Details: Table 1; primary culture of rat embryo cerebral cortex nerve cells, 2 μM AMPA, 1 μM MK-801
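Further: primary rat embryonic cortical neurons grown on an astrocyte layer in 96-well plates, used after at least 8 to 10 days in culture, Fura2-AM fluorescence ratio at 340/380 nm excitation.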
Protocol: Cerebral cortex was cut out from the brain of rat of gestational 18 days and treated with trypsin and DNase to disperse the cells. The cells were flown by MEM containing 10% of serum, sown in a culture bottle and astrocytes were proliferated. The astrocytes were re-dispersed by trypsin and sown in a 96-well plate. After incubation for one week, it was confirmed that the astrocytes covered all over the bottom and then the nerve cells of cerebral cortex which was dispersed by the above method were sown thereupon. After incubation for 24 hours, the medium was changed, the incubation was carried out for one week and, after that, the medium was changed to that containing 1 μM of MK-801. Nerve cells which were incubated for not shorter than 8 to 10 days were used.
Calcium influx into the cells was measured using Fura2-AM which was a calcium-sensitive fluorescent dye. It was treated in a medium containing Fura2-AM for 1 hour, incorporated into the cells, exchanged to a Tyrode solution containing 1 μM MK-801 and stimulation was carried out using 2 μM AMPA. Change in the amount of calcium flown into the cells were measured as the change in the fluorescent intensity at the exciting wave length of 340/380 nm.

Row | Structure (SMILES) | IC50 [nM]
1 | CS(=O)(=O)Nc1cccc(-n2cc(-c3ccccn3)cc(-c3ccccc3C#N)c2=O)c1 [Example 10, 3-(2-Cyanophenyl)-5-(2-pyridyl)-1-(3-methylsulfonylaminophenyl)-1,2-dihydropyridin-2-one] | 50
2 | N#Cc1ccccc1-c1cc(-c2ccccn2)cn(-c2ccoc2)c1=O [Example 106] | 70
3 | N#Cc1cccc(-n2cc(-c3ccccn3)cc(-c3ccccc3C#N)c2=O)c1 [Example 94, 3-(2-Cyanophenyl)-5-(2-pyridyl)-1-(3-cyanophenyl)-1,2-dihydropyridin-2-one] | 1500
4 | CS(=O)(=O)c1ccc(-n2cc(-c3ccccn3)cc(-c3ccccc3C#N)c2=O)cc1 [Example 27, 3-(2-Cyanophenyl)-5-(2-pyridyl)-1-(4-methylsulfonylphenyl)-1,2-dihydropyridin-2-one] | 50
5 | COC(=O)c1cccc(-n2cc(-c3ccccn3)cc(-c3ccccc3C#N)c2=O)c1 [Example 14, 3-(2-Cyanophenyl)-5-(2-pyridyl)-1-(3-methoxycarbonylphenyl)-1,2-dihydropyridin-2-one] | 100
6 | N#Cc1ccccc1-c1cc(-c2ccccc2F)cn(-c2ccccc2)c1=O [Example 45, 3-(2-Cyanophenyl)-5-(2-fluorophenyl)-1-phenyl-1,2-dihydropyridin-2-one] | 200
7 | N#Cc1ccccc1-c1cc(-c2ccccn2)cn(-c2ccccc2C=O)c1=O [Example 101, 3-(2-Cyanophenyl)-5-(2-pyridyl)-1-(2-formylphenyl)-1,2-dihydropyridin-2-one] | 200

Same assay, conditions: Table 2; suppression of AMPA-induced calcium influx into nerve cells

Row | IC50 [nM] | Structure (SMILES)
8 | 5000 | CN(C)Cc1ccccc1-c1cc(-c2ccccn2)cn(-c2ccccc2)c1=O [Example 154, 3-(2-Dimethylaminomethylphenyl)-5-(2-pyridyl)-1-phenyl-1,2-dihydropyridin-2-one dihydrochloride]
9 | 3700 | O=c1c(-c2cncnc2)cc(-c2ccccn2)cn1-c1ccccc1 [Example 257, 1-Phenyl-3-(5-pyrimidinyl)-5-(2-pyridyl)-1,2-dihydropyridin-2-one]
10 | 3700 | O=c1c(-c2cccc3ccccc23)cc(-c2ccccn2)cn1-c1cccnc1 [Example 279, 3-(1-Naphthyl)-5-(2-pyridyl)-1-(3-pyridyl)-1,2-dihydropyridin-2-one]
11 | 3300 | CC(=O)c1ccccc1-c1cc(-c2ccccn2)cn(-c2ccccc2)c1=O [Example 272, 3-(2-Acetylphenyl)-5-(2-pyridyl)-1-phenyl-1,2-dihydropyridin-2-one]
12 | 7100 | Nc1ccc(-c2cc(-c3ccccn3)cn(-c3ccccc3)c2=O)cc1 [Example 221, 3-(4-Aminophenyl)-1-phenyl-5-(2-pyridyl)-1,2-dihydropyridin-2-one]

Row | Structure (SMILES) | IC50 [nM]
13 | N#Cc1cccc(-c2cc(-c3ccccc3C#N)c(=O)n(-c3ccccc3)c2)n1 [Example 236, 3-(2-Cyanophenyl)-5-(2-cyanopyridin-6-yl)-1-phenyl-1,2-dihydropyridin-2-one] | 600

Same assay, conditions: Table 3; primary culture of rat embryo cerebral cortex nerve cells, 2 μM AMPA, 1 μM MK-801

Row | Structure (SMILES) | IC50 [nM]
14 | N#Cc1ccccc1-c1cc(-c2ccccn2)cn(-c2cccc(OC3CCN(S(=O)(=O)c4ccccc4)CC3)c2)c1=O [Example 337, 1-{3-[1-(Benzenesulfonyl)piperidin-4-yl-oxy]phenyl}-3-(2-cyanophenyl)-5-(2-pyridyl)-1,2-dihydropyridin-2-one] | 700
15 | O=c1c(-c2ccsc2-c2cnco2)cc(-c2ccccn2)cn1-c1ccccc1 [Example 393, 3-[2-(5-Oxazolyl)thiophen-3-yl]-1-phenyl-5-(2-pyridyl)-1,2-dihydropyridin-2-one] | 300
16 | O=c1c(-c2nc(-c3ccccc3)no2)cc(-c2ccccn2)cn1-c1ccccc1 [Example 390, 3-(3-Phenyl-1,2,4-oxadiazol-5-yl)-1-phenyl-5-(2-pyridyl)-1,2-dihydropyridin-2-one] | 1000
17 | N#Cc1ccccc1-c1cc(-c2nc3ccccc3n2C2CCN(Cc3ccccc3)CC2)cn(-c2ccccc2)c1=O [Example 365, 3-(2-Cyanophenyl)-5-[1-(1-benzylpiperidin-4-yl)benzimidazol-2-yl]-1-phenyl-1,2-dihydropyridin-2-one] | 2700
